{
  "source": "patent US20120288509A1",
  "about": "“ANALYSIS OF METHYLATED NUCLEIC ACID” (priority 2004, published 2012)",
  "test_system": "SW48 cells",
  "experiment": "5-Aza-dC treatment and RT-PCR: reactivation of silenced genes in SW48 cells",
  "format": "cell-based",
  "settings": "SW48 colon cancer cells, 5 μM 5-Aza-dC for 4 days, subset of candidate genes, versus untreated cells",
  "source_text": "FIG. 3: Validation of novel targets for aberrant methylation in colon cancer. A. Primers for PCR were designed for positive clones identified in the microarray analysis as hypermethylated in SW48 cells. DNA methylation was controlled by Single-gene PCR on enriched methylated samples prepared from WI38 primary fibroblasts and SW48 colon cancer cells according to the method described above. IN=input genomic DNA, M=enriched methylated DNA. As a separate control the inventors analyzed samples prepared from matched normal colon (N) and colon tumor (T) from three patients. MLH1 and RASSF1A have previously been described to be aberrantly methylated in SW48 cells and in some colon tumors. The imprinted H19 ICR sequence serves as a positive control for methylation. B. Control of methylation status by methylation-sensitive restriction. Genomic DNA was either digested with the methylation-sensitive HpaII enzyme or undigested and used as a PCR template with primers spanning a HpaII-containing PCR fragments in three randomly selected positive clones (top) and negative clones (bottom). The number of HpaII sites within the PCR amplicon is indicated in parenthesis. Presence of a PCR product after HpaII digest reflects DNA methylation in the sample and in each case confirms the above described enrichment analysis. C. Reactivation of silenced genes in SW48 cells by 5-Aza-dC treatment. […]",
  "data": [
    {"smiles": "Nc1ncn([C@H]2C[C@H](O)[C@@H](CO)O2)c(=O)n1", "note": "[5-Aza-dC]", "values": [
      {"measurement": "transcription of silenced (methylated) genes by RT-PCR after treatment with the demethylating agent", "result": "derepression"}
    ]}
  ]
}
